# Assay results from US20050014689A1, “Remedies for life style-related diseases or cibophobia and method of screening the same” (priority 2001, published 2005).
# System: clone 901 mRNA
# Assay: Effect of intracerebroventricular antisense DNA administration on food consumption of normal and obese mice
# Type: in vivo
# Details: 30 μg/mouse into lateral ventricle
# Excerpt: reagent: clone 901 antisense DNA was a mixture of two kinds of 25mer antisense DNAs relative to the vicinity of the gene initiation codon and synthesis, thiolation and HPLC purification were committed to Nihon Bio Service Co., Ltd.
# Test animal: male C57BL/6N (hereinafter normal mouse) and C57BL db/db (hereinafter obese mouse) (SPF grade) were purchased from Charles River, Japan, Inc. and CLEA JAPAN, INC., respectively, and after preliminary breeding, normal mice were used for the test at the age of 9 weeks and the obese mice were used for the test at the age of 11 weeks.
# Breeding environment: The mice were bred in a room controlled to a temperature of not lower than 20° C. and not higher than 26° C., relative humidity of not less than 30% and not more than 70%, lighting cycle of 8:00-20:00 lighting and 20:00-8:00 lights-out. During breeding, the mice were allowed a free access to a solid feed (CE-2, CLEA JAPAN) and sterile distilled water.
# As an antisense DNA administration liquid, an artificial cerebrospinal fluid (0.166 g/L CaCl2, 7.014 g/L NaCl, 0.298 g/L KCl, 0.203 g/L MgCl2.6H2O, 2.10 g/L NaHCO3) containing 7.5 μg/μl of antisense DNA was prepared. In addition, an artificial cerebrospinal fluid free of antisense DNA was used as a solvent control liquid.
# The normal mice and obese mice were divided into two groups each, and after fasting overnight, an antisense DNA was administered at 4 μl/mouse (30 μg/mouse in the amount of antisense DNA) to one group and a solvent control liquid (4 μl/mouse) was administered into the lateral ventricle of the other group, simultaneously with the lighting at 8:00 a.m.
# Feeding of mice was resumed immediately after administration, and food consumption was calculated at 12 hours after administration. […] The food consumption from 12 hr to 24 hr after administration was calculated. […] In the normal mice, no effect of antisense DNA of clone 901 was found.
substance,measurement,setting,value
"antisense DNA of clone 901: mixture of two thiolated 25mer antisense DNAs (SEQ ID No 3 and No 4) to the vicinity of the clone 901 initiation codon (antisense 1 GCTTCGCAGCGCTCGCTGGGCGGCG; antisense 2 AGTGGGCCACAGCTCCACATGGCAG; DNA, all phosphorothioate, methylation of C not given here)",effect on food consumption,"normal mice (C57BL/6N), 12 hr to 24 hr after administration",no effect
same,effect on food consumption,"normal mice (C57BL/6N), immediately after administration to 12 hours",food consumption-decreasing effect
same,effect on food consumption,"obese mice (C57BL db/db), 12 hr to 24 hr after administration",suppressed to the same level with the normal mice
same,effect on food consumption,"obese mice (C57BL db/db), immediately after administration to 12 hours",food consumption-decreasing effect
